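1) Cells in 96-well plates. 2) Compound, 48 h, 5 concentrations. 3) Linear interpolation between surrounding doses. 4) Unreached endpoint = highest concentration. GI50 is the concentration that inhibits growth by half. The concentration for full growth arrest is given as TGI.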
Experiments:
Experiment in all cases: growth of human tumour cells (NCI), 48 h
[1] = system: OVCAR-3 ovarian
[2] = system: HCC-2998 colon
[3] = system: MDA-MB-435
[4] = system: HOP-62 NSCLC
[5] = system: SK-OV-3 ovarian
[6] = system: M14 melanoma
[7] = system: K-562 leukemia
[8] = system: SF-268 CNS
[9] = system: IGROV1 ovarian
[10] = system: MDA-MB-231 breast

| Structure (SMILES) | GI50 [1] [nM] | TGI [1] [µM] | GI50 [2] [nM] | TGI [2] [µM] | GI50 [3] [nM] | TGI [3] [µM] | GI50 [4] [nM] | TGI [4] [µM] | GI50 [5] [nM] | TGI [5] [µM] | GI50 [6] [nM] | TGI [6] [µM] | GI50 [7] [nM] | TGI [7] [µM] | GI50 [8] [nM] | TGI [8] [µM] | GI50 [9] [nM] | TGI [9] [µM] | GI50 [10] [nM] | TGI [10] [µM] |
| --- | --- | --- | --- | --- | --- | --- | --- | --- | --- | --- | --- | --- | --- | --- | --- | --- | --- | --- | --- | --- |
| CSc1nc2nc3c(nc2c(=O)n1C)C(=O)c1ccccc1C3=O | 37.8 | 0.21 | 275 | 0.855 | 21.8 | 0.0471 | 97 | 0.413 | 774 | 2.04 | 99.4 | 0.252 | 272 | 1.32 | 294 | 1.09 | 271 | 0.778 | 256 | 0.974 |
| CCN(CC)CCCC(C)Nc1cc(-c2cccc(OC(F)(F)F)c2)nc2ccc(N3CCCC3)cc12 (centres undefined) | 30.5 | 0.382 | 224 | 2.98 | 22.3 | 0.0519 | 80.6 | > 48.2 | 77.9 | 98.7 | 36.1 | 1.16 | 39.1 | > 100 | 196 | 19.8 | 94.1 | > 100 | 195 | 14.9 |
| NC(=O)c1ccc(Oc2nccc(-c3c(-c4ccc(F)cc4)ncn3C3CCNCC3)n2)cc1 | > 25000 | > 25 | > 25000 | > 25 | > 25000 | > 25 | > 25000 | > 25 | > 25000 | > 25 | > 25000 | > 25 | > 25000 | > 25 | > 25000 | > 25 | > 25000 | > 25 | > 25000 | > 25 |
| CCCCC#Cc1c(I)n(C)c(=O)[nH]c1=O | 1540 | 2.88 | 1580 | 2.93 | 1640 | 3.88 | 16900 | 31 | 20300 | 34.6 | 2130 | 4.36 | 1820 | 3.46 | 2680 | 7.64 | 1550 | 3.04 | 2060 | 4.27 |
| C1CN(c2nnc(N3CCC3)nn2)C1 |  | > 100 |  | > 100 |  | 32.4 |  | > 100 |  | > 100 |  | 62.1 |  | > 31.6 |  | > 100 |  | > 100 |  | > 60.2 |
| Cn1cc(C2=C(c3c[nH]c4ccccc34)C(=O)NC2=O)c2ccccc21 | 940 | > 11.9 | 6660 | > 25 | 937 | > 25 | 585 | > 25 | 1080 | > 25 | 1240 | > 25 | 704 | > 25 | 1100 | > 25 | 975 | > 25 | 9060 | > 25 |
| O=C(NCCCc1cn[nH]c1)c1ccc(-c2ccncc2)c(C#Cc2ccc(F)cc2)c1 | 6270 | > 100 |  | 26.1 | < 10 | > 87.8 | 5490 | > 64.9 | 8960 | > 100 | < 10 | > 54.7 | < 10 | > 100 | 58800 | > 100 | 28.2 | > 100 | 16400 | > 100 |
| CN(C)CCCn1c(=O)c2ccccc2c2cnc3[nH]ccc3c21 | 2400 | 6.35 | 2030 | 7.72 | 1760 | 6.66 | 1490 | 5.72 | 1970 | 7.11 | 1830 | 4.44 | 2030 | 11.5 | 1440 | 5.02 | 2280 | 11.7 | 1990 | 8.83 |
| S=C1Cc2c(-c3ccc(Br)cc3)cc(-c3ccccc3)nc2-c2ccccc2N1 |  | 6.93 |  | 11.3 |  | 20.6 |  | 3.01 |  | 3.27 |  | 11.8 |  | > 100 |  | 6.19 |  | 2.94 |  | 3.72 |

— PubChem BioAssay (NCI)
